Experimental data: patent publication US11066649B2, “Method for inducing human cholangiocyte differentiation” (INSERM (INSTITUT NATIONAL DE LA SANTÉ ET DE LA RECHERCHE …, priority 2014, dated 2021)

How the values were obtained:
HepaRG-HB = test: Effect of GH on HepaRG-hepatoblasts; assay type: cell-based, human; conditions: addition of GH; data not shown
Protocol: Independent culture experiments were performed 4 times.

hepatic progenitors = test: Effect of periportal mesenchymal factors on commitment of hepatic progenitors toward cholangiocytes; assay type: cell-based, human; conditions: addition to hepatic progenitors; data not shown
hESC-Chol [1] = test: Cellular Ca2+ imaging: intracellular Ca2+ increase after hormonal stimulation; assay type: cell-based, human; conditions: hESC-Chol at day 23, Fura2-AM loaded
Protocol: At day 17, differentiating hESC-Chols were plated on glass coverslips coated with type I collagen and differentiated further into cholangiocyte-like cells as described above. At day 23 hESC-Chols were loaded with 3 μM Fura2-AM (Invitrogen, F1201) in BDM medium (37° C. and 5% CO2), for 45 minutes. Cells were then washed twice, and transferred into a perfusion chamber placed on the stage of a Zeiss inverted microscope (Axiovert 35). Intracellular calcium increases were measured after stimulation with somatostatin (Eumedica), ATP (Sigma), or Acetylcholine (Sigma). Calcium imaging was performed as described previously.^41 Fluorescence images were collected by a charge-coupled device camera (Princeton), digitized and integrated in real time by an image processor (Metafluor, Princeton).
To assess the functionality of our hESC-Chol, they analyzed their response to Adenosine triphosphate (ATP), acetylcholine and Somatostatin, known to induce Ca^2+ increase in biliary cells via P2Y1 receptors,^5 M3 muscarinic receptor (AChR M3),^25 Somatostatin receptor type 2 (SSTR2)^26 respectively, as well as type III Inositol 1,4,5-triphosphate (InsP3) receptor (InsP3R), an intracellular Ca^2+ channel, which stimulates release of Ca^2+ from intracellular stores into the cytosol.^27

hESC-Chol [2] = test: Expression of cholangiocyte markers in hESC-Chol after addition of NaBut; assay type: cell-based, human; conditions: addition of NaBut on hESC-Chol (1 μM, days 21 to 23)
Protocol: (§1) At days 10-12 of differentiation, hESC/hiPSC-hepatoblasts were harvested with cell dissociation buffer (0.1 mg/ml EDTA, 0.5 mg/ml BSA in PBS) and seeded onto 12-well collagen I-coated plates (BD Biosciences) with plating medium (William's E/Ham F12 1:1, 10% FBS (PAA Laboratories), 1 mg/ml fraction V fatty acid-free BSA (Sigma), 1 mM L-glutamine) for 4 hours. Cells were then incubated overnight with biliary differentiation medium (BDM) (William's E/Ham F12 1:1, 10^−5 M linoleic acid-Albumin (Sigma L9530), 5.10^−8 M 3,3′,5-Triiodo-L-thyronine (Sigma T2752), 0.2 IU Insulin, 6.10^−4 M Vitamin C (Boyer), […] (Sigma T5391), 1 mM sodium pyruvate (Gibco)). […]
Total RNA was purified with an RNAeasy kit (Qiagen). cDNAs were obtained by using QuantiTect kit (Qiagen 204341) or the High Capacity cDNA Reverse Transcription Kit (Applied Biosystems, Carlsbad, Calif.) according to the manufacturer's instructions. The level of gene expression was measured and analyzed by real-time PCR over 40 cycles using Taqman universal master mix II and Taqman gene expression assays (Applied Biosystems) using an ABI-7000 real-time PCR system and ABI 7000 software. The expression level of CFTR TGR5 (GPBAR-1), SCTR, GGT1, SOX9, AQP1 and JAG was determined in relation to RPL13A, which served as a housekeeping gene. […]

HepaRG-Chol = conditions: VEGF-165 20 ng/ml for 2 days
Protocol: HepaRG-HB cultured in the reduced medium were treated for 2 days with IL-6 (10 ng/ml), then for 2 days with sodium taurocholate hydrate (10 nM) and then for 2 days with sodium taurocholate hydrate (10 nM) and sodium butyrate (1.8 μM) to prevent spontaneous differentiation along the hepatocytic lineage. Independent culture experiments were performed 4 times. For proliferation assay, VEGF-165 (20 ng/ml) (Promokine, C-64420) was added on HepaRG-Chol culture for 2 days. Immunostaining pictures were analyzed and quantification was assessed with Cell Health Profiling BioApplication from Cellomics software.

[3] = system: hESC-derived differentiating cells; test: Ki67 staining of differentiating cells after addition of IL-6; assay type: cell-based, human; conditions: after addition of IL-6 (10 ng/ml)
Protocol: as §1
Cells were fixed with 4% Paraformaldehyde for 15 minutes at room temperature and permeabilized with 0.5% Triton X-100 for 15 minutes, 3% BSA-PBS for 30 minutes at room temperature or with 0.2% saponin and 5% donkey serum for 45 minutes at room temperature. […] All the photographs were taken with a Leica HMR microscope (Leica Microsystems), inverted DMIRBE microscope (Leica) using a 20×/0.4 N Plan objective (leica) and a CoolSnapES N&B camera (Photometrics) driven by MetaVue software (Molecular devices), SP5 LEICA DMI 6000 CS Microscope (Leica, Germany) and treated with LAS AF 2.6.0 software, or ACT-1 Nikon software or Cellomics ArrayScan VTI HCS Reader.

Which “proliferation and differentiation of HepaRG-hepatoblasts” value (HepaRG-HB) does the source give for “GH: peptide hormone that stimulates growth and metabolism; Uniprot P01241” here?
Its value is “did not improve”.

How did the “cell commitment toward cholangiocytes” value (hepatic progenitors) turn out when “TGFβ1: Transforming growth factor beta 1” was run?
Its value is “did not induce significant cell commitment”.

`CC(=O)OCC[N+](C)(C)C` [acetylcholine] was tested. Which “percentage of responsive cells (Ca2+ increase)” value (hESC-Chol [1]) did it give?
The value was 40%±4.

With `CCCC(=O)[O-].[Na+]` [NaBut, Sodium Butyrate] as the molecule, how does the “expression of cholangiocyte markers” value (hESC-Chol [2]) read?
Its value is “did not significantly change”.

`Nc1ncnc2c1ncn2[C@@H]1O[C@H](COP(=O)(O)OP(=O)(O)OP(=O)(O)O)[C@@H](O)[C@H]1O` [ATP, Adenosine triphosphate] was tested. Which “percentage of responsive cells (Ca2+ increase)” value (hESC-Chol [1]) did it give?
Its value is 70%±5.

How did the “cell commitment toward cholangiocytes” value (hepatic progenitors) turn out when VEGF was run?
The value was “did not induce significant cell commitment”.

And the “increase in the number of cells in G2/M phases” value (HepaRG-Chol)?
The value was “two-fold increase”.

For “IL-6: polypeptide also known as B cell-stimulating factor 2; Uniprot P05231”, which Ki67-positive cycling cells [3] is on record?
Its Ki67-positive cycling cells is “up to 68%”.

B1: BMP4: Bone morphogenetic protein 4; Uniprot P12644 (protein, UniProt P12644 293-408, looked up)
Bone morphogenetic protein 4: SPKHHSQRARKKNKNCRRHSLYVDFSDVGWNDWIVAPPGYQAFYCHGDCPFPLADHLNSTNHAIVQTLVNSVNSSIPKACCVPTELSAISMLYLDEYDKVVLKNYQEMVVEGCGCR
How did the “cell commitment toward cholangiocytes” value (hepatic progenitors) turn out when B1 was run?
The value was “did not induce significant cell commitment”.
